Experimental data from PMC4893628, “Chalcone-based Selective Inhibitors of a C4 Plant Key Enzyme as Novel Potential Herbicides” (Scientific Reports, 2016).
Like-named read-outs stand apart in the source and are kept apart here.

Legend:
F. trinervia PEPC = target: T1, F. trinervia PEPC (Flaveria trinervia, UniProt P30694); assay: biochemical; assay type: biochemical
T1 construct: the full-length ppcA gene of PEPC from F. trinervia (EMBL-Bank X61304); made in house; host or cells: Escherichia coli BL21(DE3)
T1 sequence (P30694 1-966): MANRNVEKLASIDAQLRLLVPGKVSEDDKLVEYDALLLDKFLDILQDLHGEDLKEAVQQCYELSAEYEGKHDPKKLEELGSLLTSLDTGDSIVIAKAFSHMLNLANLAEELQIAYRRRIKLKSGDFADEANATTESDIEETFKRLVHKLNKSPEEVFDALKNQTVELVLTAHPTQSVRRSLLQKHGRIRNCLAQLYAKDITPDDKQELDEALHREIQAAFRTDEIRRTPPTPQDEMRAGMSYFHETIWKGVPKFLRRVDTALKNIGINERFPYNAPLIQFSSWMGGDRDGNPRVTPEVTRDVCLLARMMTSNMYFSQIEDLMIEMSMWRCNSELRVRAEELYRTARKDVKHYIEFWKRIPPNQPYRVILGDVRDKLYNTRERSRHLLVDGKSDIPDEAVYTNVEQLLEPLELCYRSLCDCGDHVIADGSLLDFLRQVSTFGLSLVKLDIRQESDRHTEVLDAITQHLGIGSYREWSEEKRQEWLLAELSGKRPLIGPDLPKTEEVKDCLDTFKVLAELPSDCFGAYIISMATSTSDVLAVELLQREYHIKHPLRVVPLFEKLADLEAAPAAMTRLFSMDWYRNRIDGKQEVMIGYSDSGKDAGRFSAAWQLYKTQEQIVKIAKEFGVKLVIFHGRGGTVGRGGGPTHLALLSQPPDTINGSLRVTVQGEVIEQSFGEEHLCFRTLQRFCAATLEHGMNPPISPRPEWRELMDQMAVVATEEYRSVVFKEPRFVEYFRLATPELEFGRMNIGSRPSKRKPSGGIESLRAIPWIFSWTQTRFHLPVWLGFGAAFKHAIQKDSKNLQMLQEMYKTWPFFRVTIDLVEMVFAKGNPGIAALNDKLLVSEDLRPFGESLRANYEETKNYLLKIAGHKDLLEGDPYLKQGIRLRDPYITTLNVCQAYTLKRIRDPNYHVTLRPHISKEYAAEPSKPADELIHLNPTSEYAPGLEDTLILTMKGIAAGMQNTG

[1] = test system: Escherichia coli K-12 MG1655; assay: Bacterial growth in microscale cultivation, E. coli; assay type: cell-based; settings: relative to control; for activity at 0.4 µM / activity at 4 µM / activity at 40 µM: Escherichia coli
Outline: (§1)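 Inhibitors in DMSO were added to the medium, at a maximum of 400 μM for trans-chalcone and 100 μM for 2'-hydroxychalcone. Cultures were seeded at OD600 0.5, or 0.25 for B. subtilis, and growth was followed as 620 nm backscatter in a BioLector at 1200 rpm. Final backscatter, growth rate and lag phase were compared with DMSO controls.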

[2] = test system: Pseudomonas putida KT2440; assay: Bacterial growth in microscale cultivation, P. putida; assay type: cell-based; settings: relative to control; for activity at 0.4 µM / activity at 4 µM / activity at 40 µM: Pseudomonas putida
Outline: as §1

Bacillus subtilis 168 = assay: Bacterial growth in microscale cultivation, B. subtilis; assay type: cell-based; settings: relative to control
Outline: as §1

O=C(/C=C/c1ccc(O)c(O)c1)c1ccc(O)cc1O [Compound 8, 2′,4′,3,4-Tetrahydroxy-chalcone]
Selectivity C4/C3 (F. trinervia PEPC; C4 PEPC over C3 isoform): 29 fold | IC50 (F. trinervia PEPC; C4 PEPC, read-out: IC50 F. trinervia PEPC): 2200 ± 200 nM | activity at 0.4 µM ([1]; MG1655, complex medium, 0.4 µM, read-out: Final Backscatter): 98.9% | activity at 0.4 µM ([1]; MG1655, complex medium, 0.4 µM, read-out: Growth rate): 102% | activity at 4 µM ([1]; MG1655, complex medium, 4 µM, read-out: Final Backscatter): 102% | activity at 4 µM ([1]; MG1655, complex medium, 4 µM, read-out: Growth rate): 95% | activity at 40 µM ([1]; MG1655, complex medium, 40 µM, read-out: Final Backscatter): 95.7% | activity at 40 µM ([1]; MG1655, complex medium, 40 µM, read-out: Growth rate): 89.4% | activity at 0.4 µM ([1]; MG1655, minimal medium, 0.4 µM, read-out: Final Backscatter): 92.9% | activity at 0.4 µM ([1]; MG1655, minimal medium, 0.4 µM, read-out: Growth rate): 83.9% | activity at 4 µM ([1]; MG1655, minimal medium, 4 µM, read-out: Final Backscatter): 94.1% | activity at 4 µM ([1]; MG1655, minimal medium, 4 µM, read-out: Growth rate): 86.4% | activity at 40 µM ([1]; MG1655, minimal medium, 40 µM, read-out: Final Backscatter): 96.6% | activity at 40 µM ([1]; MG1655, minimal medium, 40 µM, read-out: Growth rate): 85.3% | Lag Phase ([1]; complex medium, 0.4 µM): 103,3% | Lag Phase ([1]; complex medium, 4 µM): 96,7% | Lag Phase ([1]; complex medium, 40 µM): 100,0% | Lag Phase ([1]; minimal medium, 0.4 µM): 96,2% | Lag Phase ([1]; minimal medium, 4 µM): 98,1% | Lag Phase ([1]; minimal medium, 40 µM): 98,1% | activity at 0.4 µM ([2]; KT2440, complex medium, 0.4 µM, read-out: Final Backscatter): 94.7% | activity at 0.4 µM ([2]; KT2440, complex medium, 0.4 µM, read-out: Growth rate): 90.8% | activity at 4 µM ([2]; KT2440, complex medium, 4 µM, read-out: Final Backscatter): 97% | activity at 4 µM ([2]; KT2440, complex medium, 4 µM, read-out: Growth rate): 97.4% | activity at 40 µM ([2]; KT2440, complex medium, 40 µM, read-out: Final Backscatter): 94.9% | activity at 40 µM ([2]; KT2440, complex medium, 40 µM, read-out: Growth rate): 95.3% | activity at 0.4 µM ([2]; KT2440, minimal medium, 0.4 µM, read-out: Final Backscatter): 87% | activity at 0.4 µM ([2]; KT2440, minimal medium, 0.4 µM, read-out: Growth rate): 83.7% | activity at 4 µM ([2]; KT2440, minimal medium, 4 µM, read-out: Final Backscatter): 89.8% | activity at 4 µM ([2]; KT2440, minimal medium, 4 µM, read-out: Growth rate): 89% | activity at 40 µM ([2]; KT2440, minimal medium, 40 µM, read-out: Final Backscatter): 94.8% | activity at 40 µM ([2]; KT2440, minimal medium, 40 µM, read-out: Growth rate): 90% | Lag Phase ([2]; complex medium, 0.4 µM): 92,6% | Lag Phase ([2]; complex medium, 4 µM): 93,2% | Lag Phase ([2]; complex medium, 40 µM): 96,3% | Lag Phase ([2]; minimal medium, 0.4 µM): 99,6% | Lag Phase ([2]; minimal medium, 4 µM): 99,6% | Lag Phase ([2]; minimal medium, 40 µM): 98,5% | activity at 0.4 µM (Bacillus subtilis 168; Bacillus subtilis, 168, complex medium, 0.4 µM, read-out: Final Backscatter): 98.1% | activity at 0.4 µM (Bacillus subtilis 168; Bacillus subtilis, 168, complex medium, 0.4 µM, read-out: Growth rate): 98.2% | activity at 4 µM (Bacillus subtilis 168; Bacillus subtilis, 168, complex medium, 4 µM, read-out: Final Backscatter): 100% | activity at 4 µM (Bacillus subtilis 168; Bacillus subtilis, 168, complex medium, 4 µM, read-out: Growth rate): 111% | activity at 40 µM (Bacillus subtilis 168; Bacillus subtilis, 168, complex medium, 40 µM, read-out: Final Backscatter): 98.9% | activity at 40 µM (Bacillus subtilis 168; Bacillus subtilis, 168, complex medium, 40 µM, read-out: Growth rate): 109% | activity at 0.4 µM (Bacillus subtilis 168; Bacillus subtilis, 168, minimal medium, 0.4 µM, read-out: Final Backscatter): 85.1% | activity at 0.4 µM (Bacillus subtilis 168; Bacillus subtilis, 168, minimal medium, 0.4 µM, read-out: Growth rate): 106% | activity at 4 µM (Bacillus subtilis 168; Bacillus subtilis, 168, minimal medium, 4 µM, read-out: Final Backscatter): 92.1% | activity at 4 µM (Bacillus subtilis 168; Bacillus subtilis, 168, minimal medium, 4 µM, read-out: Growth rate): 105% | activity at 40 µM (Bacillus subtilis 168; Bacillus subtilis, 168, minimal medium, 40 µM, read-out: Final Backscatter): 94.2% | activity at 40 µM (Bacillus subtilis 168; Bacillus subtilis, 168, minimal medium, 40 µM, read-out: Growth rate): 95.7% | Lag Phase (Bacillus subtilis 168; complex medium, 0.4 µM): 98,3% | Lag Phase (Bacillus subtilis 168; complex medium, 4 µM): 86,5% | Lag Phase (Bacillus subtilis 168; complex medium, 40 µM): 105,1% | Lag Phase (Bacillus subtilis 168; minimal medium, 0.4 µM): 107,5% | Lag Phase (Bacillus subtilis 168; minimal medium, 4 µM): 110,3% | Lag Phase (Bacillus subtilis 168; minimal medium, 40 µM): 90,4%
